Assays:
cyclin B/CDK1 enzyme = molecular target: T1, cyclin B/CDK1 enzyme (Homo sapiens, UniProt P06493); assay: CDK1 ELISA kinase assay (phospho-Rb ser 795 detection); assay type: biochemical; conditions: In Vitro Enzyme Assays, read-out: CDK1 IC50
T1 construct: purchased New England BioLabs; host or cells: Sf9 insect cells, recombinant baculovirus
In short: (§1)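 GST-Rb C-terminal fragment coated on plates; partially purified Sf9-expressed cyclin D1/CDK4, cyclin E/CDK2 or cyclin B/CDK1 with 200 μM ATP, pH 7.5 HEPES/MgCl2 buffer, 1 h at 30 °C; screen compound final 10 μg/ml. Phospho-Rb Ser795 detected by antibody ELISA (TMB, A450); % of control, IC50 from background-subtracted inhibition curves.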

MCF-7 = assay: Cytotoxicity assay (SRB), MCF-7; assay type: cell-based; conditions: Homo sapiens, MCF7, 72 h, MCF-7 cells, SRB, three days; read-out: In Vitro Cellular Activity IC50 MCF-7
In short: (§2)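 Seeding: BT474 12000, HCT-116 4000, LoVo 6000, MCF-7 6000 cells/well; overnight attachment, 37 °C, 7% CO2. Drug exposure 3 d (BT474 6 d), RPMI 1640 + 5% FBS. Readout: TCA fix, 0.4% SRB, Tris solubilisation, A540.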

cyclin E/CDK2 enzyme = molecular target: T2, cyclin E/CDK2 enzyme (Homo sapiens, UniProt P24941); assay: CDK2 ELISA kinase assay (phospho-Rb ser 795 detection); assay type: biochemical; conditions: In Vitro Enzyme Assays, read-out: CDK2 IC50
T2 construct: made in house; host or cells: Sf9 insect cells, recombinant baculovirus
In short: as §1

HCT-116 = assay: Cytotoxicity assay (SRB), HCT-116; assay type: cell-based; conditions: Homo sapiens, HCT-116, 72 h, HCT116 cells, SRB, three days; read-out: In Vitro Cellular Activity IC50 HCT116
In short: as §2

BT474 = assay: Cytotoxicity assay (SRB), BT474; assay type: cell-based; conditions: Homo sapiens, BT-474, 144 h, BT474 cells, SRB, 6 days; read-out: In Vitro Cellular Activity IC50 BT474
In short: as §2

LoVo = assay: Cytotoxicity assay (SRB), LoVo; assay type: cell-based; conditions: Homo sapiens, LoVo, 72 h, LoVo cells, SRB, three days; read-out: In Vitro Cellular Activity IC50 LOVO
In short: as §2

cyclin D1/cdk 4 enzyme = molecular target: T3, cyclin D1/cdk 4 enzyme (Homo sapiens, UniProt P11802); assay: CDK4 ELISA kinase assay (phospho-Rb ser 795 detection); assay type: biochemical; conditions: In Vitro Enzyme Assays, 200 μM ATP, read-out: CDK4 IC50
T3 construct: made in house; host or cells: Sf9 insect cells, recombinant baculovirus
In short: as §1

T3 sequence (P11802 whole entry, species assumed): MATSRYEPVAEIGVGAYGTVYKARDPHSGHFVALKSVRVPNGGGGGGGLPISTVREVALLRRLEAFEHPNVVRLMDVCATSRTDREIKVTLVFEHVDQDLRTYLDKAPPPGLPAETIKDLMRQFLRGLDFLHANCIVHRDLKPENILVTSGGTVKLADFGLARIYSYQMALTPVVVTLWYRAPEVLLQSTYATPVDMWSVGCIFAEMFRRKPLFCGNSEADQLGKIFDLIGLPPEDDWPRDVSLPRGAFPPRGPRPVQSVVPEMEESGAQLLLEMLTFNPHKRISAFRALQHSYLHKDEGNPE
T3 sequence (P24385 whole entry partner, species assumed): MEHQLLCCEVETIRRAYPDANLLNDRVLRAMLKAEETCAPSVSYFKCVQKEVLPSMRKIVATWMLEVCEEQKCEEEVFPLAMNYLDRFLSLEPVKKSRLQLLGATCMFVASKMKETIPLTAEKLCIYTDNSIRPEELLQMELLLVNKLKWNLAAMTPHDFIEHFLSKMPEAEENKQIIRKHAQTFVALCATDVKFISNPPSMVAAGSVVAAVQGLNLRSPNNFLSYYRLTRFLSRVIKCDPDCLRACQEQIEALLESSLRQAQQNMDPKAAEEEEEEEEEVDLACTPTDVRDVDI
T1 sequence (P06493 whole entry): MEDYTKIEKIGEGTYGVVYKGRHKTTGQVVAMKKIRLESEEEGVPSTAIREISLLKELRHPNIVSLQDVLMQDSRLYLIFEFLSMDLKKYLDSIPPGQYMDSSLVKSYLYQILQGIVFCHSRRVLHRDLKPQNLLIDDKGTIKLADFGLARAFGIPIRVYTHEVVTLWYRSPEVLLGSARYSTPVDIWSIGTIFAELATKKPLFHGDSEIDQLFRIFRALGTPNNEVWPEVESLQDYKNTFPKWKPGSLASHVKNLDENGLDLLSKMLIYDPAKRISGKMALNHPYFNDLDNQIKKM
T1 sequence (P14635 whole entry partner): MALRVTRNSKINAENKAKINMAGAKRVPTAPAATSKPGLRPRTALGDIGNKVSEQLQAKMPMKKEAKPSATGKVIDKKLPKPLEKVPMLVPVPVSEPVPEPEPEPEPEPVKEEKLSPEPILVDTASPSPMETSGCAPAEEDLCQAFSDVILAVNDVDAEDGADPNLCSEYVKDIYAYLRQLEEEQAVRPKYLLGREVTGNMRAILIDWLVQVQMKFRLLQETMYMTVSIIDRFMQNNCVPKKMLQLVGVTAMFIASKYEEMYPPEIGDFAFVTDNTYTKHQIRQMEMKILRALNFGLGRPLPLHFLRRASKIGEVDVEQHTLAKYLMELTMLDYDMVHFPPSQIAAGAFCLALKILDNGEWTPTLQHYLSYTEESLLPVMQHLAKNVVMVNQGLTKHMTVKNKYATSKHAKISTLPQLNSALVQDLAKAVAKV

melting point	IC50 (cyclin B/CDK1 enzyme)	IC50 (cyclin E/CDK2 enzyme)	IC50 (cyclin D1/cdk 4 enzyme)	SMILES	IC50 (MCF-7)	IC50 (HCT-116)	IC50 (BT474)	IC50 (LoVo)
194 to 195 °C	> 50 µM	> 50 µM	0.04 µM	CCCOc1ccc(CN/C=C2\C(=O)NC(=O)c3ccc(-c4ccc(F)cc4)cc32)cc1O [Example 192, (4Z)-6-(4-Fluorophenyl)-4-{[(3-hydroxy-4-propoxybenzyl)amino]methylene}-isoquinoline-1,3(2H,4H)-dione]	2.4 µM	6.8 µM	16 µM	40 µM
245 to 246 °C	> 50 µM	40.6 µM	1.1 µM	COc1ccc(CN/C=C2\C(=O)NC(=O)c3ccc(NS(=O)(=O)c4ccccc4)cc32)cc1O [Example 196, N-((4Z)-4-{[(3-Hydroxy-4-methoxybenzyl)amino]methylene}-1,3-dioxo-1,2,3,4-′tetrahydroisoquinolin-6-yl)benzenesulfonamide]	38 µM	35 µM	37 µM	37 µM
229 to 230 °C	> 50 µM	> 50 µM	4.1 µM	CC1CN(c2ccc(N/C=C3\C(=O)NC(=O)c4ccc(Br)cc43)cc2)CC(C)N1 (stereo not drawn) [Example 201]	1.7 µM	1.1 µM	1.4 µM	1.4 µM
270 to 271 °C	31.7 µM	> 50 µM	13.9 µM	CN1CCN(NC(=O)Nc2ccc(N/C=C3\C(=O)NC(=O)c4ccc(Br)cc43)cc2)CC1 [Example 217, N-(4-{[(Z)-(6-Bromo-1,3-dioxo-2,3-dihydroisoquinolin-4(1H)-′ylidene)methyl]amino}phenyl)-N′-(4-methylpiperazin-1-yl)urea]	7.4 µM	2.6 µM	3.3 µM	4.8 µM
278 to 279 °C	> 50 µM	> 50 µM	0.15 µM	O=C1NC(=O)c2ccc(Br)cc2/C1=C/NCc1ccc(NC(=O)C(F)(F)F)c(O)c1 [Example 218, N-[4-({[(Z)-(6-Bromo-1,3-dioxo-2,3-dihydroisoquinolin-4(1H)-′ylidene)methyl]amino}methyl)-2-hydroxyphenyl]-2,2,2-trifluoroacetamide]	19 µM	3.3 µM	2.6 µM	4.5 µM
210 to 211 °C	> 50 µM	> 50 µM	0.27 µM	O=C1NC(=O)c2ccc(Br)cc2/C1=C/NCc1ccc(OCC2CC2)c(O)c1 [Example 219, (4Z)-6-Bromo-4-({[4-(cyclopropylmethoxy)-3-′hydroxybenzyl]amino}methylene)isoquinoline-1,3(2H,4H)-dione]	32 µM	2.8 µM	1.9 µM	6.9 µM
141 to 142 °C	> 50 µM	> 50 µM	3.3 µM	CN1CCN(c2ccc(N/C=C3\C(=O)N(CO)C(=O)c4ccc(Br)cc43)cc2)CC1 [Example 220, (4Z)-6-Bromo-2-(hydroxymethyl)-4-({[4-(4-methylpiperazin-1-yl)phenyl]amino}methylene)isoquinoline-1,3(2H,4H)-dione]	2.4 µM	3.2 µM	3.3 µM	3.8 µM
264 to 265 °C	> 50 µM	2.4 µM	0.4 µM	Cc1ccc(C)n1-c1ccc2c(c1)/C(=C/Nc1ccc(N3CCN(C)CC3)cc1)C(=O)NC2=O [Example 226, (4Z)-6-(2,5-Dimethyl-1H-pyrrol-1-yl)-4-({[4-(4-methylpiperazin-1-′yl)phenyl]amino}methylene)isoquinoline-1,3(2H,4H)-dione]	5.2 µM	2.4 µM	3.3 µM	4.4 µM
176 to 178 °C	> 50 µM	38 µM	27.7 µM	CCCOc1ccc(CN/C=C2\C(=O)N(O)C(=O)c3ccccc32)cc1O [Example 230, 2-Hydroxy-4-[(3-hydroxy-4-propoxy-benzylamino)-methylene]-4H-isoquinoline-1,3-dione]	3.1 µM	2.1 µM	6.4 µM	3.8 µM
189 to 190 °C	32.4 µM	22.6 µM	0.44 µM	CN1CCN(c2ccc(N/C=C3\C(=O)NC(=O)c4ccc(I)cc43)cn2)CC1 [Example 237, (4Z)-6-Iodo-4-({[6-(4-methylpiperazin-1-yl)pyridin-3-′yl]amino}methylene)isoquinoline-1,3(2H,4H)-dione]	4 µM	2.6 µM	3.2 µM	7.4 µM
215 to 216 °C	> 50 µM	4.2 µM	0.31 µM	CN1CCC(c2ccc(N/C=C3\C(=O)NC(=O)c4ccc(I)cc43)cc2)CC1 [Example 239, (4Z)-6-Iodo-4-({[4-(1-methylpiperidin-4-yl)phenyl]amino}methylene)isoquinoline-1,3(2H,4H)-dione]	4 µM	2.5 µM	7.9 µM	7.7 µM
213 to 214 °C	> 50 µM	> 50 µM	17.3 µM	C[C@@H]1CN(c2ccc(N/C=C3\C(=O)NC(=O)c4ccc(Br)cc43)cc2)C[C@H](C)N1C [Example 240, (4Z)-6-Bromo-4-[({4-[(3R,5S)-3,4,5-trimethylpiperazin-1-yl]phenyl}amino)methylene]-isoquinoline-1,3(2H,4H)-dione]	2 µM	2.7 µM	3.1 µM	3.7 µM
204 to 205 °C	> 50 µM	> 50 µM	0.45 µM	C[C@@H]1CN(c2ccc(N/C=C3\C(=O)NC(=O)c4ccc(-c5ccoc5)cc43)cc2)C[C@H](C)N1C [Example 241, (4Z)-6-(3-Furyl)-4-[({4-[(3R,5S)-3,4,5-trimethylpiperazin-1-yl]phenyl}amino)-methylene]isoquinoline-1,3(2H,4H)-dione]	1.3 µM	1.9 µM	1.2 µM	3.8 µM
212 to 214 °C (dec.)	> 50 µM	> 50 µM	28.3 µM	CCCOc1ccc(CN/C=C2\C(=O)NC(=O)c3cc(OC)c(Br)cc32)cc1O [Example 246, 6-Bromo-4-[(3-hydroxy-4-propoxy-benzylamino)-methylene]-7-methoxy-4H-isoquinoline-1,3-dione]	> 50 µM	22 µM	2 µM	37 µM
265 to 266 °C	> 50 µM	> 50 µM	2.8 µM	CN1CCN(c2ccc(N/C=C3\C(=O)NC(=O)c4ccc(Br)cc43)cn2)CC1 [Example 250, (4Z)-6-Bromo-4-({[6-(4-methylpiperazin-1-yl)pyridin-3-′yl]amino}methylene)isoquinoline-1,3(2H,4H)-dione]	1.6 µM	6.2 µM	7.6 µM	7.1 µM
227 to 230 °C	> 50 µM	> 50 µM	2.9 µM	COc1cc2c(cc1-c1ccc(F)cc1)/C(=C/Nc1ccc(CN3CCCCC3)cc1)C(=O)NC2=O [Example 253, 6-(4-Fluoro-phenyl)-7-methoxy-4-[(4-piperidin-1-ylmethyl-phenylamino)-methylene]-4H-isoquinoline-1,3-dione]	2 µM	1.1 µM	2.8 µM	2.6 µM
198 to 220 °C	> 50 µM	> 50 µM	7.4 µM	COc1cc2c(cc1-c1ccoc1)/C(=C/Nc1ccc(N3CCN(C)CC3)cc1)C(=O)NC2=O [Example 254, 6-Furan-3-yl-7-methoxy-4-{[4-(4-methyl-piperazin-1-yl)-phenylamino]-methylene}-4H-isoquinoline-1,3-dione]	2.4 µM	2 µM	2.1 µM	4.8 µM
160 to 161 °C	> 50 µM	> 50 µM	1 µM	CO[C@@H]1CCN(Cc2ccc(N/C=C3\C(=O)NC(=O)c4ccc(I)cc43)cc2)C1 [Example 264, (4Z)-6-Iodo-4-{[(4-{[(3R)-3-methoxypyrrolidin-1-yl]methyl}phenyl)amino]methylene}isoquinoline-1,3(2H,4H)-dione]	2 µM	4.4 µM	2.2 µM	8.8 µM

Source: patent US7713994B2 (Wyeth LLC, priority 2005, dated 2010)
